Measurements reported in US5714483A, “Antitussive” (TORAY Industries, Inc., priority 1992, dated 1998).

Legend:
capsaicin-induced cough [1] = assay: Capsaicin-induced cough in rats (60 μM capsaicin), ED50, Example 3; assay type: in vivo, SD male rats; details: Rattus norvegicus, ip, 0.5 h; i.p.; capsaicin 60 μM, 30 minutes after administration; read-out: ED50 (dose at which the number of cough is suppressed to half)
Procedure: (§1) SD male rats (body weight: 250-350 g) were used under non-anesthesic condition.
(§2) Respiration and cough were measured by plestimography. The body plestimograph used has a plastic cylinder having a diameter of 7.5 cm and a length of 15 cm, and consists of a cylindrical part in which the body of the rat is inserted and a cap part which covers the head. In the upper portion of the cylinder, a vent was formed so as to connect a respiration flow meter. To tightly close the cylinder, a collar made of rubber or celluloid was put on the neck of the rat. In the cap part, an inlet for introducing capsaicin and a ventilating hole were formed. The respiration of the rats was measured by measuring the movement of the thorax due to the respiration in terms of the change in the inner volume of the cylinder by the respiration flow meter. […] This large change is distinguished from the normal respiration and measured by the respiration flow meter. The number of this large change was measured, which is defined as the number of cough.
(§3) Capsaicin (60 μM) was converted to mist by ultrasonic nebulizer and the mist was sent by an artificial respirator into the cap covering the head of the rat through a silicone tube, thereby inducing cough. Capsaicin was transferred by the artificial respirator for inhalation at a dose of 10 ml/time and at a rate of 70 times/min.
The rats were made to inhale capsaicin for 5 minutes at 270 minutes before the administration of the test compound. Induction of cough was confirmed during the inhalation of capsaicin. The rats were made to inhale capsaicin for 5 minutes at 30 minutes after administration of the test compound, and the number of induced cough during this period was measured. The antitussive effect was evaluated in terms of the suppression rate, that is, the ratio of the number of cough after administration of the test compound to the number of cough before administration of the test compound. Capsaicin was dissolved in saline. The test compounds were dissolved in aqueous 10% DMSO solution. In any case, the test compounds were intraperitoneally administered. The effectiveness of each of the test compounds is shown in terms of ED50 value which means the dose at which the number of cough is suppressed to half.

capsaicin-induced cough [2] = assay: Capsaicin-induced cough in rats (30 μM capsaicin), plethysmography, Examples 1 and 2; assay type: in vivo, SD male rats
Procedure: as §1, §2
as §3, with “(30” for “(60”, “20” for “10”, “30” for “70”
The rats were made to inhale capsaicin for 5 minutes at 15 minutes before the administration of the test compound. Induction of cough was confirmed during the inhalation of capsaicin. The rats were made to inhale capsaicin for 5 minutes at 15, 60 and 120 minutes after administration of the compound, and the number of induced cough was measured during this period. The antitussive effect was evaluated in terms of the suppression rate, that is, the ratio of the number of cough after administration of the test compound to the number of cough before administration of the compound. The measured suppression rates were compared using Mann Whiteny U-test. If there is a difference at significant level (P<0.05), the difference was evaluated as significant. Capsaicin was dissolved in 10% ethanol and 10% Tween 80 and diluted with saline. The test compound was dissolved in saline. In any case, the test compound was intraperitoneally administered.

Oc1ccc2c3c1O[C@H]1c4[nH]c5c6c(ccc5c4C[C@@]4(O)[C@@H](C2)N(CC2CC2)CC[C@]314)CCCC6 [Compound 2, 17-cyclopropylmethyl-6,7-didehydro-4,5α-epoxy-3,14β-dihydroxy-6',7'-cyclohexeno-6,7,2',3'-indolomorphinan] was tested. Which ED50 (capsaicin-induced cough [1]) did it give?
Its ED50 is 0.0395 mg/kg.

How did the “number of cough induced by inhalation of capsaicin” value (capsaicin-induced cough [2]; capsaicin 30 μM mist, 5 min inhalation) turn out when COc1cc(CNC(=O)CCCC/C=C/C(C)C)ccc1O [capsaicin, reference compound] was run?
The value was 22.5±1.2 times/5 minutes.

For COc1ccc2c3c1O[C@H]1c4[nH]c5c(ccc6cnccc65)c4C[C@@]4(O)[C@@H](C2)N(CC2CC2)CC[C@]314 [Compound 6, 17-cyclopropylmethyl-6,7-didehydro-4,5α-epoxy-14β-hydroxy-3-methoxy-[6',7'-b]-pyrido-6,7,2',3'-indolomorphinan], which ED50 (capsaicin-induced cough [1]) is on record?
Its ED50 is 0.0413 mg/kg.

With COc1ccc2c3c1O[C@H]1c4[nH]c5ccccc5c4C[C@@]4(O)[C@@H](C2)N(CC2CC2)CC[C@]314 [Compound 7, 17-cyclopropylmethyl-6,7-didehydro-4,5α-epoxy-14β-hydroxy-3-methoxy-6,7,2',3'-indolomorphinan] as the compound, how does the ED50 (capsaicin-induced cough [1]) read?
Its ED50 is 0.0639 mg/kg.

With Oc1ccc2c3c1O[C@H]1c4nc5ccccc5cc4C[C@@]4(O)[C@@H](C2)N(CC2CC2)CC[C@]314 [Compound 4, 17-cyclopropylmethyl-6,7-didehydro-4,5α-epoxy-3,14β-dihydroxy-6,7,2',3'-quinolinomorphinan] as the compound, how does the ED50 (capsaicin-induced cough [1]) read?
The ED50 was 0.984 mg/kg.

What does the source list for Oc1ccc2c3c1O[C@H]1c4[nH]c5ccccc5c4C[C@@]4(O)[C@@H](C2)N(CC2CC2)CC[C@]314 [Compound 1, 17-cyclopropylmethyl-6,7-didehydro-4,5α-epoxy-3,14β-dihydroxy-6,7,2',3'-indolomorphinan]?
dose-dependence of antitussive effect (capsaicin-induced cough [2]; 0.03 mg/kg to 1 mg/kg, i.p., 15 minutes after administration): dose-dependent antitussive effect; antitussive effect (capsaicin-induced cough [2]; 1 mg/kg, i.p.): a significant antitussive effect was observed; peak of the antitussive effect (time after administration) (capsaicin-induced cough [2]; 1 mg/kg, i.p.): 15 min; antitussive effect at 120 minutes compared with saline group (capsaicin-induced cough [2]; 1 mg/kg, i.p., 120 minutes after administration, vs saline group): a significant antitussive effect was observed even 120 minutes after the administration; antitussive effect compared with morphine (0.3 mg/kg) (capsaicin-induced cough [2]; Compound 1 1 mg/kg vs morphine 0.3 mg/kg, i.p., 15 minutes after administration): substantially identical to that by morphine (0.3 mg/kg)

How did the ED50 (capsaicin-induced cough [1]) turn out when Oc1ccc2c3c1O[C@H]1c4[nH]c5c(ccc6cnccc65)c4C[C@@]4(O)[C@@H](C2)N(CC2CC2)CC[C@]314 [Compound 5, 17-cyclopropylmethyl-6,7-didehydro-4,5α-epoxy-3,14β-dihydroxy-[6',7'-b]-pyrido-6,7,2',3'-indolomorphinan] was run?
Its ED50 is 0.0797 mg/kg.
